Laboratory results published in ChEMBL document CHEMBL1201862, “PubChem BioAssay data set” (2004).
Active and inactive are the calls of the source.

Tests used:
Saccharomyces cerevisiae = assay: S. cerevisiae Caspase-1/ASC signal blockers IC50, NALP1 inhibitor project selectivity test (AID 488863); assay type: functional, organism-based
[1] = biological target: NACHT, LRR and PYD domains-containing protein 1 (Homo sapiens, UniProt Q9C000); assay: NALP1 inhibitors in yeast, dose response, luminescent (AID 488860); assay type: functional
[2] = biological target: T1, Ubiquitin-conjugating enzyme E2 N (Homo sapiens, UniProt P61088); assay type: functional;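 also: Dose-response confirmation in a TR-FRET assay detecting UBC13-driven polyubiquitin chain formation, inhibition measured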
T1 sequence (P61088 whole entry): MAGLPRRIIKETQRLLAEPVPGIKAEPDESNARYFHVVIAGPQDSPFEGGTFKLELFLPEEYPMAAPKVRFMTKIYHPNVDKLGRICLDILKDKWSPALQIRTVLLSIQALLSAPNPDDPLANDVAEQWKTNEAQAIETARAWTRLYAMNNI

BJ [3] = assay: BJ-TERT-LT-ST fibroblast viability loss – cell-based, RAS-independent, luminescence, dose response (AID 1935); assay type: functional; settings: Homo sapiens;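 also: BJ fibroblasts immortalized with TERT plus LT and ST oncogenes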
BJ [4] = assay: BJ-TERT fibroblast viability loss – cell-based, RAS-independent, luminescence, dose response (AID 1933); assay type: functional; settings: Homo sapiens
[5] = luciferase reporter signal suppression in cells – H4 neuroglioma cells, luminescence, dose response (AID 1990); assay type: functional, cell-based
[6] = alpha-synuclein stem-loop translation blockers – luminescence, H4 neuroglioblastoma cells, dose confirmation, confirmation (AID 2454); assay type: functional, cell-based;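 also: H4 neuroglioblastoma cells carrying an alpha-synuclein 5'UTR luciferase reporter; potency for inhibition of the luciferase signal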
[7] = DRD fibroblast viability loss – cell-based, non-viral oncogenic, luminescence, dose response (AID 1934); assay type: functional; settings: Homo sapiens
[8] = Luminescence Cell-Based Dose Response HTS to Identify Inhibitors of 5'UTR Stem-Loop Driven Prion Protein mRNA Translation in H4 Neuroglioblastoma Cells. [Related pubchem assays: 1827 (Project Summary), 1813 (Primary HTS)]; assay type: functional
[9] = luciferase reporter signal reduction – luminescence, H4-C neuroglioblastoma cells, dose response (AID 2458); assay type: functional, cell-based;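 also: H4 neuroglioblastoma cells stably carrying a luciferase reporter gene fusion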
J774.A1 = assay: Confirmation of image-based Screening Assay for Inhibitors of Phagocytosis. [Related pubchem assays (depositor defined):AID1029, AID1643]; assay type: functional, cell-based; settings: Mus musculus
BJ [10] = assay: cells; assay type: functional, cell-based; settings: Homo sapiens
cells = assay type: functional, cell-based
[11] = alpha-synuclein stem-loop luciferase translation blockers – H4 neuroglioma cells, luminescence, confirmation (AID 1988); assay type: functional, cell-based
Nonstructural protein 1 = Nonstructural protein 1 (Influenza A virus, UniProt Q194T2); assay type: functional, Influenza A virus (A/California/07/2009(H1N1))
[12] = biological target: T2, Short transient receptor potential channel 4 (Mus musculus, UniProt Q9QUQ5); assay: calcium entry via TRPC4 opening agents – cell-based, HEK293 TRPC4/mu-opioid, Fluo-4 calcium, dose response (AID 434937); assay type: functional
T2 sequence (Q9QUQ5 whole entry): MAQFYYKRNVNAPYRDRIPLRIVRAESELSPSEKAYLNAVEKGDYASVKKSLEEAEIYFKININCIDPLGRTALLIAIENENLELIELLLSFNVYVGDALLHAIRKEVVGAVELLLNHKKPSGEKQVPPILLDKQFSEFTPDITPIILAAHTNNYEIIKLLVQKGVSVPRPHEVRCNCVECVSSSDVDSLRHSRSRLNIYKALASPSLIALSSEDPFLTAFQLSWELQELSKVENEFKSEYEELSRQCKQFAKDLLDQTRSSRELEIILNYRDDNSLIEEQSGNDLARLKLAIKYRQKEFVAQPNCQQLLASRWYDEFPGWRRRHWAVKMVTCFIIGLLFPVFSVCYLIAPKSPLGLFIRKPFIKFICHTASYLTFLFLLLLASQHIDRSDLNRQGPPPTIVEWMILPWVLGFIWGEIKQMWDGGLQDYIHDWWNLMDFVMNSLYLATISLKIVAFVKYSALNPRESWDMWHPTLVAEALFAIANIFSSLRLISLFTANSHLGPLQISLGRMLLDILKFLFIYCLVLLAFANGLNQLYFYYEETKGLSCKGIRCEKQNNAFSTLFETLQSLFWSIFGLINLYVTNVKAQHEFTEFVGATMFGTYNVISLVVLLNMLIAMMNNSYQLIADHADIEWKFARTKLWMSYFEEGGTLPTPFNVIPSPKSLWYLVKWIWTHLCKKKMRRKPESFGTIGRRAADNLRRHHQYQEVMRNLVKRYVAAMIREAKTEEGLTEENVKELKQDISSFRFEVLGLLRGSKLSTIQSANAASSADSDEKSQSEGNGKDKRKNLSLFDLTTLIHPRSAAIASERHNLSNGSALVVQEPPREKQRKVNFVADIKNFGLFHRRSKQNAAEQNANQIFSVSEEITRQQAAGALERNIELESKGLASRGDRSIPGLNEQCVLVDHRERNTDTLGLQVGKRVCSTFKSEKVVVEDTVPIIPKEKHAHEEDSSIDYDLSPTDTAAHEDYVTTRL

[13] = biological target: Female germline-specific tumor suppressor gld-1 (Caenorhabditis elegans, UniProt Q17339); assay: blockers of GLD-1/TGE RNA complex formation – biochemical, fluorescence polarization, C. elegans, dose response (AID 2802);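 also: fluorescence polarization of labeled TGE RNA bound by purified gld-1 protein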
Sequence of Female germline-specific tumor suppressor gld-1 (Q17339 whole entry): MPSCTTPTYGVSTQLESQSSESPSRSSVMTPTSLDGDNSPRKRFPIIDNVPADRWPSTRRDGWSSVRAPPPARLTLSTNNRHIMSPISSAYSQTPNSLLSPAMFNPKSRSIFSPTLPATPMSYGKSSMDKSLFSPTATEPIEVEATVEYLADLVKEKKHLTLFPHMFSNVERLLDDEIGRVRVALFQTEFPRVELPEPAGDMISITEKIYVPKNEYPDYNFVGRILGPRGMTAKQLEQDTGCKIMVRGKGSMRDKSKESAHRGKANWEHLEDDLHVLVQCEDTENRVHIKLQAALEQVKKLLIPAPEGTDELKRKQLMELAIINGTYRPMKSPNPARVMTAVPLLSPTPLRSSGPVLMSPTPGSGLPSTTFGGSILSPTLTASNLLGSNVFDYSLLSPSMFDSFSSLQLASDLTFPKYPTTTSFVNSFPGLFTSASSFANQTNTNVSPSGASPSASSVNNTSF

Protein Rev = Protein Rev (Human immunodeficiency virus type 1 group M subtype B (isolate HXB2)(HIV-1), UniProt P04618); assay: blockers of HIV Rev/RRE RNA complex – biochemical, fluorescence polarization, HIV-1, dose response (AID 434976); set-up: species or system Human immunodeficiency virus 1
[14] = HIV-1 Vif–A3G interaction blockers – biochemical, TR-FRET, GST-Vif 1-94, biotin-A3G peptide, dose response retest, primary screen (AID 1117319); assay type: functional;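 also: TR-FRET signal of purified GST-Vif binding a biotinylated A3G peptide; inhibitors lower the FRET signal by blocking Vif and A3G binding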
CAAX prenyl protease 2 [15] = biological target: T3, CAAX prenyl protease 2 (Homo sapiens, UniProt Q9Y256); assay: inhibition of Ras-converting CAAX protease Rce1 – biochemical, yeast membranes, quenched-peptide fluorescence, cherry-pick, dose response (AID 588849)
T3 sequence (Q9Y256 whole entry): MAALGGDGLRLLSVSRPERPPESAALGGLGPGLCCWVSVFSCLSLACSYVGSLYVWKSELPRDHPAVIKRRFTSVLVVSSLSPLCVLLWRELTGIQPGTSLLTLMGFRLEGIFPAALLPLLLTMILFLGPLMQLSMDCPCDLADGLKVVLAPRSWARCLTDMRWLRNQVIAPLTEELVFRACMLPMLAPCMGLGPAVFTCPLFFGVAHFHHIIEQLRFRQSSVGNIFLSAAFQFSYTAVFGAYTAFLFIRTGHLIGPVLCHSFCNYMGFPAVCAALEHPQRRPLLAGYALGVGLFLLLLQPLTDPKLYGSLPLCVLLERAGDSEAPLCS

CAAX prenyl protease 2 [16] = biological target: CAAX prenyl protease 2 (Saccharomyces cerevisiae S288c, UniProt Q03530); assay type: biochemical
Trypsin = Trypsin (Sus scrofa, UniProt P00761); assay: trypsin protease activity blockade – biochemical, quenched peptide fluorescence, cherry-pick, selectivity assay for Rce1 protease inhibitor project, dose response (AID 488789)
Sequence of Trypsin (P00761 whole entry): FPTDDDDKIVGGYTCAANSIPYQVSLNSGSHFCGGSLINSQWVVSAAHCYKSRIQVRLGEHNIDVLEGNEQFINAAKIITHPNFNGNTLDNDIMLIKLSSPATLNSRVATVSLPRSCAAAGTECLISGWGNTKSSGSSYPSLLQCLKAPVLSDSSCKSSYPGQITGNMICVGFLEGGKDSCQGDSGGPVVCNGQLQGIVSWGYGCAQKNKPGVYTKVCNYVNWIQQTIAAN

CAAX prenyl protease 1 = CAAX prenyl protease 1 (Saccharomyces cerevisiae S288c, UniProt P47154); assay: yeast CAAX protease Ste24 inhibition – biochemical, S. cerevisiae, plate reader, cherry-pick, dose response (AID 488815)
[17] = protection from phage-mediated lysis, alamar blue read-out – E. coli UTI89, K1F phage, bacterial capsule biogenesis inhibitors (AID 488966); assay type: functional
Protein Tat = Protein Tat (Human immunodeficiency virus type 1 group M subtype B (isolate HXB2)(HIV-1), UniProt P04608); assay type: functional;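 also: tat binding to TAR RNA read out by fluorescence polarization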
[18] = antiviral protection against BTV-induced cell death – arbovirus, BSR cells, confirmation (AID 1250); assay type: functional;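 also: protection from viral cytopathic effect measured as cell viability by ATP luminescence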
Prothrombin = Prothrombin (Bos taurus, UniProt P00735); assay: thrombin protease inhibitors – biochemical, fluorescence polarization, uHTS hits, dose response (AID 602369); assay type: functional
[19] = biological target: 72 kDa type IV collagenase (Homo sapiens, UniProt P08253); assay: Dose Response validation of uHTS RPN11 inhibitor hits using a MMP-2 Fluorescence assay.; assay type: functional
Sequence of 72 kDa type IV collagenase (P08253 whole entry): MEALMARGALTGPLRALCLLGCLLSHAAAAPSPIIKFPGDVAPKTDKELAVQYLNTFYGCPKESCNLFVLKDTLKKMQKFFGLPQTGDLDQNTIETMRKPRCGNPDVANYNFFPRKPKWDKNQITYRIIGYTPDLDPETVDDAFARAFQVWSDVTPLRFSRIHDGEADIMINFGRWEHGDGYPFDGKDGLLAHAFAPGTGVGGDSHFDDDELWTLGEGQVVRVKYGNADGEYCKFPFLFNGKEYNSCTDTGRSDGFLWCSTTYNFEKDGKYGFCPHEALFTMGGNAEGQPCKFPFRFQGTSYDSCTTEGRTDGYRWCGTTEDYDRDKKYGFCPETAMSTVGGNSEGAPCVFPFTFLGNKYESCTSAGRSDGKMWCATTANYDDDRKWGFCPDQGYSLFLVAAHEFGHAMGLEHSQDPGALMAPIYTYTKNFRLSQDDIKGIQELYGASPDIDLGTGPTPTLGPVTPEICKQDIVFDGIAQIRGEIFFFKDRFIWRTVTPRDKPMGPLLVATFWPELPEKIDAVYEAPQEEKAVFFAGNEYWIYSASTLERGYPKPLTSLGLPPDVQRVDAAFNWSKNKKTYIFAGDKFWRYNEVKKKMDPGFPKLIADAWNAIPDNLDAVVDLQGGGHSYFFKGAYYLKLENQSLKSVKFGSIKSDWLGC

Estrogen receptor beta [20] = biological target: T4, Estrogen receptor beta (Homo sapiens, UniProt Q92731);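 also: recombinant ER-beta bound to coactivator SRC1 peptide in presence of estradiol agonist; inhibitors block coactivator peptide binding and lower the FRET signal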
T4 sequence (Q92731 whole entry): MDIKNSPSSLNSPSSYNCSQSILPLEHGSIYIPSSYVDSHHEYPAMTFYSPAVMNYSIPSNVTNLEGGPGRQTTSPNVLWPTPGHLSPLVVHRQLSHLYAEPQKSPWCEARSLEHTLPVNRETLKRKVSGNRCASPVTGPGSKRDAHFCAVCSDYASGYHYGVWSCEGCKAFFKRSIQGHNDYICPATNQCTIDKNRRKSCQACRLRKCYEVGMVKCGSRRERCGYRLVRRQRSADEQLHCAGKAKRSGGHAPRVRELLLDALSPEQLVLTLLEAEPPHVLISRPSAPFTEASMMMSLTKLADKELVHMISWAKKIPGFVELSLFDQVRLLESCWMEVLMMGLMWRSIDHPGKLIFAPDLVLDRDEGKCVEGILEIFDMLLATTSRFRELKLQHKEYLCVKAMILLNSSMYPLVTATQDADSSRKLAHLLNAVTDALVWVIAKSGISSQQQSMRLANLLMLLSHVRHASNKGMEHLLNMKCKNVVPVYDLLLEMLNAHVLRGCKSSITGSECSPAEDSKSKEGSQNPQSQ

[21] = biological target: 26S proteasome non-ATPase regulatory subunit 14 (Homo sapiens, UniProt O00487); assay: inhibition of proteasome subunit RPN11 – biochemical, fluorescence polarization, uHTS hits, confirmation (AID 602368); assay type: functional
[22] = biological target: Induced myeloid leukemia cell differentiation protein Mcl-1 (Homo sapiens, UniProt Q07820); assay type: functional
Estrogen receptor beta [23] = biological target: T4, Estrogen receptor beta; assay: blockers of SRC-3 recruitment to ERβ – biochemical, ELISA, streptavidin-HRP readout, orthogonal assay, confirmation (AID 1060)
Large T antigen = Large T antigen (Simian virus 40, UniProt P03070); assay type: functional, Betapolyomavirus macacae;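 also: Confirmatory-stage PubChem screen for compounds that inhibit SV40 T antigen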
Protein skinhead-1 = biological target: T5, Protein skinhead-1 (Caenorhabditis elegans, UniProt P34707); assay type: functional
T5 sequence (P34707 whole entry): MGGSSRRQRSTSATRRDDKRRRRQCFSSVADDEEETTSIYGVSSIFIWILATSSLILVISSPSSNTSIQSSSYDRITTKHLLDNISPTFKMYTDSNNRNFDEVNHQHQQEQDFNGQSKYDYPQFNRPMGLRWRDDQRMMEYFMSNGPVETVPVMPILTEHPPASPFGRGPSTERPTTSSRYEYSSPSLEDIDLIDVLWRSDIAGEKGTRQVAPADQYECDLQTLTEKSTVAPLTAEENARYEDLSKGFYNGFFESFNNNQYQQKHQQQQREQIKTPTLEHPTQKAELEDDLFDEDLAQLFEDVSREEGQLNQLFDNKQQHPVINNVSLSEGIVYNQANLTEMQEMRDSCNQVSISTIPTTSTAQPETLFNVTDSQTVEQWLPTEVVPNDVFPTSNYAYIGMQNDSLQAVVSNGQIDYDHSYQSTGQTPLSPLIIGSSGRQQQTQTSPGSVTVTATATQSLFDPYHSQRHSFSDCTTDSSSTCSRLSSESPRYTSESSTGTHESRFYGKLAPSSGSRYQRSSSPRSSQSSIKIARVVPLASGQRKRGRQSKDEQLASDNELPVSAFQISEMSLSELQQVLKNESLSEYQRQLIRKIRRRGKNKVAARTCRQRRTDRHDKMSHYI

Caspase-7 = Caspase-7 (Homo sapiens, UniProt P55210); assay: activation of caspase-7 zymogen – biochemical, absorbance, counter-screen for procaspase-3 activator project, dose response (AID 489013)
[24] = biological target: T6, Voltage-gated N-type calcium channel alpha-1B subunit/Amyloid beta A4 precursor protein-binding family A member 1 (Homo sapiens, UniProt Q00975+Q02410); assay type: protein assay
T6 sequence (Q00975 whole entry): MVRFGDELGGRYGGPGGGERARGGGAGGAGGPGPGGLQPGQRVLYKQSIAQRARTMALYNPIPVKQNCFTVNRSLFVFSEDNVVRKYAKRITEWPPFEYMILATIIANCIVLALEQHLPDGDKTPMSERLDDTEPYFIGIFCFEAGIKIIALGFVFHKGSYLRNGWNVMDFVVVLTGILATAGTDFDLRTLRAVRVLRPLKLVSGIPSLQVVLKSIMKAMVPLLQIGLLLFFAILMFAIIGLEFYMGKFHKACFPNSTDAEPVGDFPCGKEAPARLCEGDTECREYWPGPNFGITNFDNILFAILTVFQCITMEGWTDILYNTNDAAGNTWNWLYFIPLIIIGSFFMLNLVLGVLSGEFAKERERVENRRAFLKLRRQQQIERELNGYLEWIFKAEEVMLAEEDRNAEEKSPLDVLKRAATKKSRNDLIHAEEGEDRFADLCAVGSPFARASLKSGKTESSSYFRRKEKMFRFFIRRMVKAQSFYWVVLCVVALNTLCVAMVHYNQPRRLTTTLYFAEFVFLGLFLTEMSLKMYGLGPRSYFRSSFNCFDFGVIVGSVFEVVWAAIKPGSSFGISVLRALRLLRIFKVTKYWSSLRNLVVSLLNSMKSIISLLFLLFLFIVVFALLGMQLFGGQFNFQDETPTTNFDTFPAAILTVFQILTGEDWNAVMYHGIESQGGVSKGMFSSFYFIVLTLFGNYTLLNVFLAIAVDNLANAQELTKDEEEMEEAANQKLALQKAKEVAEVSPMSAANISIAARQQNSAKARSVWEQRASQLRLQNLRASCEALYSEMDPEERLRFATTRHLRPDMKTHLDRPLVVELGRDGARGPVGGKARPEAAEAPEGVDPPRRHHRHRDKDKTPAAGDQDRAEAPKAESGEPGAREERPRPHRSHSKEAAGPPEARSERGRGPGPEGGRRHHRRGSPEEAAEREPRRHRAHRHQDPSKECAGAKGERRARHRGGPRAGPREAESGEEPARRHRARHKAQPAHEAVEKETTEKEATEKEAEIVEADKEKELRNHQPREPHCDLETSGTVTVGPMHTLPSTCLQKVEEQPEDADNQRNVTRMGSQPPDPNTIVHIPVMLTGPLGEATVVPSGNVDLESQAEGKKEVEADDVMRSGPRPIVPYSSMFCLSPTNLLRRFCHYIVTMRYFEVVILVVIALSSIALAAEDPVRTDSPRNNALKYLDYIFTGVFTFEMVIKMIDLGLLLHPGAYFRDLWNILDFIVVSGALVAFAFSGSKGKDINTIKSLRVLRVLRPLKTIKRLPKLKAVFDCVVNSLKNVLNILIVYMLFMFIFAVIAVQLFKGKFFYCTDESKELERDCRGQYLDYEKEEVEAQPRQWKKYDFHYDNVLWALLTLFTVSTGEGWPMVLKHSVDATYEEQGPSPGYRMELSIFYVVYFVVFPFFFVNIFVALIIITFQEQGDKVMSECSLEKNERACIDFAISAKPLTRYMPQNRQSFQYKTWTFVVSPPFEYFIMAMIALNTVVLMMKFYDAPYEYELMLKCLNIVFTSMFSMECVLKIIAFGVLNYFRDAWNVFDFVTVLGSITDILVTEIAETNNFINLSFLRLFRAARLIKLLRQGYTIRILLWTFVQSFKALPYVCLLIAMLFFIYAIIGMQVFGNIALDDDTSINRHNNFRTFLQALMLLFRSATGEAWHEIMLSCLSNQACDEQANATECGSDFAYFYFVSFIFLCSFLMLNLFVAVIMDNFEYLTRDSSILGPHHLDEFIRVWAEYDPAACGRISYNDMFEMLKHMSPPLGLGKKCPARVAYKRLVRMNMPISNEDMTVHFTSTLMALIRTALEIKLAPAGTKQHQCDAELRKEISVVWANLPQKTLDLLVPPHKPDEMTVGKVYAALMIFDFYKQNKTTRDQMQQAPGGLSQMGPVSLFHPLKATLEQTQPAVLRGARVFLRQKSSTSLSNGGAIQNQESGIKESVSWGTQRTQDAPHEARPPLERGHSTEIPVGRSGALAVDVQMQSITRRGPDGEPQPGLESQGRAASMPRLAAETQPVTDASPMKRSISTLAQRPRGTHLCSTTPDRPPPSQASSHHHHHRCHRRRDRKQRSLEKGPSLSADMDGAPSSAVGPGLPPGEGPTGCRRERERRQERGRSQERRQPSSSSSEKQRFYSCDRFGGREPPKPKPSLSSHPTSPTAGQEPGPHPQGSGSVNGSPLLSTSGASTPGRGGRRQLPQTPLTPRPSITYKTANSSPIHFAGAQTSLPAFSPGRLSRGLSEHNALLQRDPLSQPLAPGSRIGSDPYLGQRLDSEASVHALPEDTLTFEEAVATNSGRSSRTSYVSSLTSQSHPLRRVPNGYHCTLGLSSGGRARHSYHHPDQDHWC
T6 sequence (Q02410 whole entry): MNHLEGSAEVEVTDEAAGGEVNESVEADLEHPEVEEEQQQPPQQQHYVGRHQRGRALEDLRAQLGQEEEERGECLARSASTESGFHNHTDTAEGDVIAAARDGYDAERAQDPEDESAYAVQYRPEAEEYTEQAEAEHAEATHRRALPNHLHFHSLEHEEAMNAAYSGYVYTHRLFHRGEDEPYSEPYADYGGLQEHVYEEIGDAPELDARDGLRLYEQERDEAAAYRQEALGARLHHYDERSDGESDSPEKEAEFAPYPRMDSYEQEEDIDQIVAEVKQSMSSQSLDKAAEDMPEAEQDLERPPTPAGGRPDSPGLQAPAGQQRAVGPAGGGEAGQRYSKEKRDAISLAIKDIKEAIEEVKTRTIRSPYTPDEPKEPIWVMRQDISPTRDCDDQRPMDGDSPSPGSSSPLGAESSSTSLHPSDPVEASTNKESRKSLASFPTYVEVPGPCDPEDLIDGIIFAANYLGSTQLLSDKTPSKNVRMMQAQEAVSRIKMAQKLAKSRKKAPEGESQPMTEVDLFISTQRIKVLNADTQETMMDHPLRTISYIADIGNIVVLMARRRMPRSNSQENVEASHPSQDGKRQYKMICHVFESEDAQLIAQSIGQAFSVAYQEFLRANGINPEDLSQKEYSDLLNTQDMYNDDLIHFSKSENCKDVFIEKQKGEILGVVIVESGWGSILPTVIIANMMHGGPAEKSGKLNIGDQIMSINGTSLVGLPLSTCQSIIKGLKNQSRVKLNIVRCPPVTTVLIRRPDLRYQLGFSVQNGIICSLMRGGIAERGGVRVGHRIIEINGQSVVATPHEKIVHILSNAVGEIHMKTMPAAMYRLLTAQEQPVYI

Caspase-3 = biological target: T7, Caspase-3 (Homo sapiens, UniProt P42574); assay: activation of caspase-3 zymogen – biochemical, absorbance, dose response (AID 489014)
T7 sequence (P42574 whole entry): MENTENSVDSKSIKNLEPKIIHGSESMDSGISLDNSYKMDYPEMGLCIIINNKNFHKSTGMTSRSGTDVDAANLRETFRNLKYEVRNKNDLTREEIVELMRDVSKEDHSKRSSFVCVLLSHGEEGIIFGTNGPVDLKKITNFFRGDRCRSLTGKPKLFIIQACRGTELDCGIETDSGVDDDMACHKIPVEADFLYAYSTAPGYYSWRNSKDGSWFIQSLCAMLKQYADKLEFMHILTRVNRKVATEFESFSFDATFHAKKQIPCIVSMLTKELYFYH

[25] = biological target: T6, Voltage-gated N-type calcium channel alpha-1B subunit/Amyloid beta A4 precursor protein-binding family A member 1; assay type: protein assay; remark: listed apart in the source

SMILES: Cc1ccc2nc(N(CCCN(C)C)C(=O)c3sc4ccccc4c3Cl)sc2c1
- IC50 (Saccharomyces cerevisiae): 6.52 µM (active)
- IC50 [1]: 16.9 µM (active)
- IC50 [2]: > 20 µM (inactive)

SMILES: COC(=O)Nc1nc(-c2ccccc2)c(C(=O)c2ccccc2)s1
- EC50 (BJ [3]): 0.479 µM (active)
- EC50 (BJ [4]): 0.676 µM (active)
- EC50 [5]: 1.73 µM (active)
- EC50 [6]: 1.36 µM (active)
- EC50 [7]: 1.04 µM (active)
- EC50 [8]: < 0.1 µM (active)
- EC50 [9]: 1.04 µM (active)
- IC50 (J774.A1): > 25 µM (inactive)
- EC50 (BJ [10]): 1.56 µM (active)
- EC50 (cells): 1.19 µM (active)
- EC50 [11]: < 0.1 µM (active)

SMILES: Cc1ccc(N2CCN(c3ccc(NCc4nc5ccccc5n4C)cc3)CC2)cc1
- IC50 (Nonstructural protein 1): 75.6 µM (active)
- EC50 [12]: 1.06 µM (active)
- IC50 [13]: > 2.21 µM (active)
- IC50 (Protein Rev): 19.6 µM (not active)

SMILES: CC(=O)Nc1ccc(S(=O)(=O)Nc2cccc(-c3nc4ccccc4o3)c2)cc1
- IC50 [14]: > 100 µM (active)
- AC50 (CAAX prenyl protease 2 [15]): 7.75 µM (active)
- AC50 (CAAX prenyl protease 2 [16]): 14.4 µM (active)
- AC50 (Trypsin): 5.89 µM (active)
- AC50 (CAAX prenyl protease 1): 7.83 µM (active)

SMILES: CCCC1=NN2C(=N)/C(=C\c3ccc(SCc4ccco4)o3)C(=O)N=C2S1
- IC50 [17]: > 75 µM (active)
- IC50 (Protein Tat): 1.98 µM (inconclusive)
- IC50 [18]: 59.4 µM (active)
- IC50 (Prothrombin): 22.8 µM (active)
- IC50 [19]: 6.34 µM (active)
- IC50 (Estrogen receptor beta [20]): 2.65 µM (active)
- IC50 [21]: 13.7 µM (active)
- IC50 [22]: 3.18 µM (active)
- IC50 (Estrogen receptor beta [23]): > 50 µM (not active)
- IC50 (Large T antigen): 29.3 µM (active)
- IC50 (Protein skinhead-1): > 100 µM (inactive)

SMILES: Cc1cc2nn(-c3cccc4ccccc34)nc2cc1N
- EC50 (Caspase-7): > 85.2 µM (inactive)
- IC50 [24]: 46.7 µM (active)
- EC50 (Caspase-3): > 85.2 µM (inactive)
- IC50 [25]: 8.23 µM (active)
